{"source": "patent US10919905B2", "about": "“Polymorphism for irinotecan free base” (ScinoPharm Taiwan, Ltd., priority 2019, dated 2021)", "assay": "variable humidity x-ray powder diffraction (VH-XRPD), humidity effect on XRPD pattern", "format": "physicochemical", "settings": "FIG. 7", "protocol": "X-ray Powder Diffraction patterns were collected on a Bruker AXS D8 diffractometer using Cu Kα1 radiation (40 kV, 40 mA), θ-2θ goniometer, and divergence of 10 mm slits, a Ge monochromator and LynxEye detector. The representative PXRD pattern was collected under ambient condition.\nIrinotecan free base (119 g) and dichloromethane (1600 mL, 13.5 vol) were added to a 3 L flask at room temperature (20-30° C.) to obtain a first suspension mixture. Water (120 mL, 1 vol) and 5% sodium bicarbonate (480 mL, 4 vol) were added to the first mixture at room temperature. The suspension was filtered, and then the phases were allowed to separate, and an organic layer was saved. Water (600 mL, 5 vol) was added, and the phases were allowed to separate, and the organic layer was saved. The organic layer was concentrated to about 430 mL (3.6 vol). Ethyl acetate (1440 mL, 12 vol) was added to the concentrated organic layer at 25-35° C. to obtain a second mixture. The second mixture was concentrated to about 1665 mL (14 vol) then cooled to 15-25° C. to obtain a slurry mixture. The slurry mixture was filtered, and a wet cake was obtained and dried under the nitrogen to afford irinotecan free base form S3 (98.04 g). The Form S3 was studied by using variable humidity x-ray powder diffraction (VH-XRPD) to investigate the humidity effect on XRPD pattern (FIG. 7). […] The changes in diffraction peaks are reversible with the humidity being changed."}
{"smiles": "CCc1c2c(nc3ccc(OC(=O)N4CCC(N5CCCCC5)CC4)cc13)-c1cc3c(c(=O)n1C2)COC(=O)[C@]3(O)CC", "note": "[Form S3, [1,4′-bipiperidine]-1′-carboxylic acid, (4S)-4,11-diethyl-3,4,12,14-tetrahydro-4-hydroxy-3,14-dioxo-1H-pyrano[3′,4′:6,7]indolizino[1,2-b]quinolin-9-yl ester]", "values": [{"measurement": "humidity effect on XRPD pattern (change in diffraction peaks)", "setting": "sample exposed at 5-40% RH", "value": "no significant change in diffraction peaks was observed"}, {"measurement": "humidity effect on XRPD pattern (change in diffraction peaks)", "setting": "sample exposed at higher than 60% RH", "value": "the diffraction peaks changed"}, {"measurement": "reversibility of changes in diffraction peaks", "setting": "with the humidity being changed", "value": "reversible"}]}
